Experimental data from PMC3237458, “PEGylation Potentiates the Effectiveness of an Antagonistic Peptide That Targets the EphB4 Receptor with Nanomolar Affinity” (PLoS ONE, 2011).
Entries after “also recorded” stand apart in the source; their conditions may differ. Square brackets hold non-standard residues; d marks the D form. Peptide text beside a SMILES is read from it. * marks the point of attachment. Biotin = O=C1N[C@H]2[C@H](CS[C@H]2CCCCC(=O)*)N1; Ahx = NCCCCCC(=O)O

Assays:
[1] = target: T1, EphB4 (Mus musculus, UniProt P54761); assay: Ephrin-B2-induced EphB4 tyrosine phosphorylation in B16 melanoma cells (immunoprecipitation/immunoblot); format: cell-based; details: 24 hours pretreatment, Figure 4A
T1 construct: tyrosine phosphorylation of endogenous EphB4 expressed in B16 melanoma cells; host or cells: B16-F10-luc-G5 melanoma cells
T1 sequence (P54761 16-987): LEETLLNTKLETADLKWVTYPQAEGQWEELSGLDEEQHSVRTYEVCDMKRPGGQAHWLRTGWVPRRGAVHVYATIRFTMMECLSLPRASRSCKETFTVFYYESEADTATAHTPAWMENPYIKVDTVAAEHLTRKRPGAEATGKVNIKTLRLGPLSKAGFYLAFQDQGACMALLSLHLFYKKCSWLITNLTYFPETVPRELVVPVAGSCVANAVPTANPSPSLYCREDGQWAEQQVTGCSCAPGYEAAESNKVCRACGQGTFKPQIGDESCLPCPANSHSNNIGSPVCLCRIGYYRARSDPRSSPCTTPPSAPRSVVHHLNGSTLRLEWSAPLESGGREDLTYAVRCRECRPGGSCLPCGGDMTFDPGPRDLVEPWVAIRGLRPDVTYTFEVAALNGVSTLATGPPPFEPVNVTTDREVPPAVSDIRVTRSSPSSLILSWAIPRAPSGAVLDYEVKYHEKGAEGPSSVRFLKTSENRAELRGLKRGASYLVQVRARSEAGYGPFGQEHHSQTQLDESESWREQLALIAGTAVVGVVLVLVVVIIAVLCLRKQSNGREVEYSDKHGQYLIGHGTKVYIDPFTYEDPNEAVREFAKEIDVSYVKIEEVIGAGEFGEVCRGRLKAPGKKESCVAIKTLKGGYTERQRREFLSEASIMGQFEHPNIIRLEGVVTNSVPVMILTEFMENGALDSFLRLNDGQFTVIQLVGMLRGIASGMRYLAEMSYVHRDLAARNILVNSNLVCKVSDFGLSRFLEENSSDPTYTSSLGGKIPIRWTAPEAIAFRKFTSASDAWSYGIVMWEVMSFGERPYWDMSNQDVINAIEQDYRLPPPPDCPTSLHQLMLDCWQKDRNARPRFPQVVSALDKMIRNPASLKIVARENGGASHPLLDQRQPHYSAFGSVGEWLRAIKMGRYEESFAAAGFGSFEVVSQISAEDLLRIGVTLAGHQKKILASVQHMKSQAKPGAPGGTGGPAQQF
Method: B16-F10-luc-G5 melanoma cells, which endogenously express EphB4, were serum starved for 1–3 hours in Eagle's MEM/EBSS containing 0.5% FBS and incubated for 15 min or 24 hours with different concentrations of PEG-TNYL-RAW. The cells were then stimulated for 20 min with 1.5 µg/ml ephrin-B2 Fc, which had been preclustered with a 3 fold excess of an anti-Fc antibody, in the continued presence of the peptide. HUVECs, EMCs or a 1∶1 mixture of the two cell types were plated for 20 hours in complete medium in the presence of PEG or PEG-TNYL-RAW. Medium 200 was used for HUVECs and HUVECs and EMCs co-cultures, DMEM was used for EMCs. The cells were lysed in modified RIPA buffer (1% Triton X-100, 1% Na deoxycholate; 0.1% SDS; 20 mM Tris; 150 mM NaCl; 1 mM EDTA) containing 10 µM NaF, 1 µM sodium pervanadate and protease inhibitors. Protein concentrations were measured using the BCA protein assay kit (Pierce Biotechnology, Rockford, IL). For immunoprecipitations, cell lysates were incubated with 20 µg of an anti-EphB4 antibody made to a GST fusion protein of the EphB4 SAM domain and carboxy-terminal tail immobilized on GammaBind Sepharose beads (GE Healthcare Life Sciences). […]

[2] = Peptide retention in mouse blood circulation; format: in vivo; details: 6 nmoles biotinylated TNYL-RAW IV, 3 mice, serum diluted 1:20, ELISA on EphB4 Fc; Figure 1D
Method: 2.1 nmoles TNYL-RAW-Fc, 1.5 nmoles TNYL-RAW-streptavidin and 6 nmoles PEG-TNYL-RAW, diluted in 150 µl sterile PBS, were administered to C57BL/6 mice by intravenous or intraperitoneal injection. Blood was collected from each mouse from the orbital sinus at two time points after injection and by cardiac puncture under Avertin anesthesia at a third time point. These experiments were carried out in accordance with the recommendations in the Guide for the Care and Use of Laboratory Animals of the National Institutes of Health. The protocol was approved by the Institutional Animal Care and Use Committee of the Sanford-Burnham Medical Research Institute (Animal Assurance Number: A-3053-1). After collection, the blood was […], and the serum was stored at −20°C. The different forms of TNYL-RAW in the serum were detected by using the same ELISA assays described above for measurements of binding affinity. The absorbance from wells incubated with mouse serum without TNYL-RAW was subtracted as the background and the concentration of TNYL-RAW in the blood was calculated based on a standard curve generated using serum containing known TNYL-RAW concentrations. The half-life of each peptide was estimated by using non linear regression and the program Prism (GraphPad Software Inc.). The area under the curve (AUC) was expressed as % ID•hours/ml (where ID is the initial dose of peptide injected) and calculated by dividing the AUC value obtained using the program Prism by the amount of injected peptide and multiplying by 100.

[3] = Peptide stability in mouse serum ex vivo; format: in vitro ADME; details: 37°C

SMILES: CC[C@H](C)[C@H](NC(=O)[C@@H]1CCCN1C(=O)CNC(=O)[C@H](CC(N)=O)NC(=O)[C@@H]1CCCN1C(=O)[C@H](CO)NC(=O)[C@H](Cc1ccccc1)NC(=O)[C@H](CC(C)C)NC(=O)[C@H](Cc1ccc(O)cc1)NC(=O)[C@H](CC(N)=O)NC(=O)[C@@H](N)[C@@H](C)O)C(=O)N[C@@H](C)C(=O)N[C@@H](CCCNC(=N)N)C(=O)N[C@@H](C)C(=O)N[C@@H](Cc1c[nH]c2ccccc12)C(=O)NCCCCCC(=O)N[C@@H](CCCCNC(=O)CCCC[C@@H]1SC[C@@H]2NC(=O)N[C@@H]21)C(N)=O [TNYL-RAW] (H-TNYLFSPNGPIARAW[Ahx]K(Biotin)-NH2; N-terminus and C-terminus assumed)
- Inhibitory activity on EphB4 phosphorylation after 24 hours of incubation with cells [1]: ineffective
- Detection in mouse serum 30 min after intravenous administration [2]: could not be detected; also recorded: undetectable
- Loss in mouse serum ex vivo with protease inhibitors ([3]; mouse serum, mixture of protease inhibitors, ELISA, Fig. 1E): partially counteracted by a mixture of protease inhibitors
- Stability in mouse serum ex vivo ([3]; undiluted mouse serum, functional peptide by ELISA, Figures 1E, 3B): rapidly lost
